Patent publication US8993756B2 (Merck Sharp & Dohme Corp., priority 2011, dated 2015)
Values belong to the molecule of their own block, whether it stands above or below them.

Legend:
JAK3 = JAK3 (Homo sapiens (Human), UniProt P52333); experiment: Jak Biochemical HTRF Assay (JAK3); conditions: recombinant GST-tagged catalytic domain, [ATP] 2.9 μM
JAK2 = JAK2 (Homo sapiens (Human), UniProt O60674); experiment: Jak Biochemical HTRF Assay (JAK2); conditions: recombinant GST-tagged catalytic domain, [ATP] 8.5 μM
JAK2, sequence (O60674 849-1124): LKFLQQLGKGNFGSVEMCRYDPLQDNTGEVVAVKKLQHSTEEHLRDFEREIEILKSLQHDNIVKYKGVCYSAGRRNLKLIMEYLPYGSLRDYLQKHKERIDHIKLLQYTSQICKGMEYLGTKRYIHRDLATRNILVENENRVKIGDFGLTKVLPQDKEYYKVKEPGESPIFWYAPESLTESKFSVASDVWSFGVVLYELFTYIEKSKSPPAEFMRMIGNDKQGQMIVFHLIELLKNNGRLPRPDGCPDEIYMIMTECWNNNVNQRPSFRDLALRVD

JAK3, sequence (P52333 822-1111): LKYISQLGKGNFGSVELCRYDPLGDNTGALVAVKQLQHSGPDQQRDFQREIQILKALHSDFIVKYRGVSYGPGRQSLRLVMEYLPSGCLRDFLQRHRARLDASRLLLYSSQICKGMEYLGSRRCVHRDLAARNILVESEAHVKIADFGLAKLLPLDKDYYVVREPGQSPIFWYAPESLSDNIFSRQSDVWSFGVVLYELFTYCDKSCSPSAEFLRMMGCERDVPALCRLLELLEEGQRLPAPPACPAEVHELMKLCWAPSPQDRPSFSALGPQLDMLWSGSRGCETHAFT

Structure (SMILES): CCOC(=O)c1c[nH]c2ncnc(-c3ccc4cc[nH]c4c3)c12 [Example 1-83, ethyl 4-(1H-indol-6-yl)-7H-pyrrolo[2,3-d]pyrimidine-5-carboxylate]
- IC50 (JAK3): 9.7 nM
- IC50 (JAK2): 137 nM

Structure (SMILES): CCOC(=O)c1c[nH]c2ncnc(-c3cnc4[nH]ccc4c3)c12 [Example 1-84, ethyl 4-(1H-pyrrolo[2,3-b]pyridin-5-yl)-7H-pyrrolo[2,3-d]pyrimidine-5-carboxylate]
- IC50 (JAK3; given as range class): 10 to 500 nM
- IC50 (JAK2; given as range class): 10 to 500 nM

Structure (SMILES): CCOC(=O)c1c[nH]c2ncnc(-c3ccc(N4CCN(C)CC4)cc3)c12 [Example 1-85, ethyl 4-[4-(4-methylpiperazin-1-yl)phenyl]-7H-pyrrolo[2,3-d]pyrimidine-5-carboxylate]
- IC50 (JAK3; given as range class): 10 to 500 nM
- IC50 (JAK2; given as range class): > 500 nM

Structure (SMILES): CCOC(=O)c1c[nH]c2ncnc(C3=CCC(O)CC3)c12 (centres unmarked) [Example 1-86, ethyl 4-(4-hydroxycyclohex-1-en-1-yl)-7H-pyrrolo[2,3-d]pyrimidine-5-carboxylate]
- IC50 (JAK3; given as range class): 10 to 500 nM
- IC50 (JAK2; given as range class): 10 to 500 nM

Structure (SMILES): CCOC(=O)c1c[nH]c2ncnc(-c3ccc(N4CCN(C)CC4)nc3)c12 [Example 1-87, ethyl 4-[6-(4-methylpiperazin-1-yl)pyridin-3-yl]-7H-pyrrolo[2,3-d]pyrimidine-5-carboxylate]
- IC50 (JAK3; given as range class): 10 to 500 nM
- IC50 (JAK2; given as range class): > 500 nM

Structure (SMILES): CCOC(=O)c1c[nH]c2ncnc(C3=CCCOC3)c12 [Example 1-88, ethyl 4-(5,6-dihydro-2H-pyran-3-yl)-7H-pyrrolo[2,3-d]pyrimidine-5-carboxylate]
- IC50 (JAK3; given as range class): 10 to 500 nM
- IC50 (JAK2; given as range class): > 500 nM

Structure (SMILES): CCOC(=O)c1c[nH]c2ncnc(-c3ccnc(OC)c3)c12 [Example 1-89, ethyl 4-(2-methoxypyridin-4-yl)-7H-pyrrolo[2,3-d]pyrimidine-5-carboxylate]
- IC50 (JAK3; given as range class): 10 to 500 nM
- IC50 (JAK2; given as range class): > 500 nM

Structure (SMILES): CCOC(=O)c1c[nH]c2ncnc(-c3cnc(OC)nc3)c12 [Example 1-91, ethyl 4-(2-methoxypyrimidin-5-yl)-7H-pyrrolo[2,3-d]pyrimidine-5-carboxylate]
- IC50 (JAK3; given as range class): 10 to 500 nM
- IC50 (JAK2; given as range class): > 500 nM

Structure (SMILES): CCOC(=O)c1c[nH]c2ncnc(-c3cccc(CN4CCOCC4)c3)c12 [Example 1-96, ethyl 4-[3-(morpholin-4-ylmethyl)phenyl]-7H-pyrrolo[2,3-d]pyrimidine-5-carboxylate]
- IC50 (JAK3; given as range class): 10 to 500 nM
- IC50 (JAK2; given as range class): > 500 nM

Structure (SMILES): CCOC(=O)c1c[nH]c2ncnc(-c3ccc(N4CCS(=O)(=O)CC4)cc3)c12 [Example 1-97, ethyl 4-[4-(1,1-dioxidothiomorpholin-4-yl)phenyl]-7H-pyrrolo[2,3-d]pyrimidine-5-carboxylate]
- IC50 (JAK3): 6.8 nM
- IC50 (JAK2): 348 nM

Structure (SMILES): CCOC(=O)c1c[nH]c2ncnc(C3=CCOCC3)c12 [Example 1-98, ethyl 4-(3,6-dihydro-2H-pyran-4-yl)-7H-pyrrolo[2,3-d]pyrimidine-5-carboxylate]
- IC50 (JAK3; given as range class): 10 to 500 nM
- IC50 (JAK2; given as range class): > 500 nM

Structure (SMILES): CCOC(=O)c1c[nH]c2ncnc(-c3ccc(C(=O)NC4CCOC4)cc3)c12 (centres unmarked) [Example 1-100, ethyl 4-[4-(tetrahydrofuran-3-ylcarbamoyl)phenyl]-7H-pyrrolo[2,3-d]pyrimidine-5-carboxylate]
- IC50 (JAK3; given as range class): 10 to 500 nM
- IC50 (JAK2; given as range class): > 500 nM

Structure (SMILES): CCOC(=O)c1c[nH]c2ncnc(-c3cccc(N(C)S(C)(=O)=O)c3)c12 [Example 1-102, ethyl 4-{3-[methyl(methylsulfonyl)amino]phenyl}-7H-pyrrolo[2,3-d]pyrimidine-5-carboxylate]
- IC50 (JAK3; given as range class): 10 to 500 nM
- IC50 (JAK2; given as range class): > 500 nM

Structure (SMILES): CCOC(=O)c1c[nH]c2ncnc(-c3cccc(-n4cccn4)c3)c12 [Example 1-103, ethyl 4-[3-(1H-pyrazol-1-yl)phenyl]-7H-pyrrolo[2,3-d]pyrimidine-5-carboxylate]
- IC50 (JAK3; given as range class): 10 to 500 nM
- IC50 (JAK2; given as range class): > 500 nM

Structure (SMILES): CCOC(=O)c1c[nH]c2ncnc(-c3ccc(CC#N)nc3)c12 [Example 1-104, ethyl 4-[6-(cyanomethyl)pyridin-3-yl]-7H-pyrrolo[2,3-d]pyrimidine-5-carboxylate]
- IC50 (JAK3; given as range class): 10 to 500 nM
- IC50 (JAK2; given as range class): > 500 nM

Structure (SMILES): CCOC(=O)c1c[nH]c2ncnc(-c3ccc(C(C)(C)O)cc3)c12 [Example 1-107, ethyl 4-[4-(1-hydroxy-1-methylethyl)phenyl]-7H-pyrrolo[2,3-d]pyrimidine-5-carboxylate]
- IC50 (JAK3; given as range class): 10 to 500 nM
- IC50 (JAK2; given as range class): 10 to 500 nM

Structure (SMILES): CCOC(=O)c1c[nH]c2ncnc(-c3cccc(NCC(F)(F)F)c3)c12 [Example 3-1, Ethyl 4-{3-[(2,2,2-trifluoroethyl)amino]phenyl}-7H-pyrrolo[2,3-d]pyrimidine-5-carboxylate]
- IC50 (JAK3; given as range class): 10 to 500 nM
- IC50 (JAK2; given as range class): > 500 nM

Structure (SMILES): CCOC(=O)c1c[nH]c2ncnc(-c3ccc(C)c(NCC(F)(F)F)c3)c12 [Example 3-2, ethyl 4-{4-methyl-3-[(2,2,2-trifluoroethyl)amino]phenyl}-7H-pyrrolo[2,3-d]pyrimidine-5-carboxylate]
- IC50 (JAK3; given as range class): 10 to 500 nM
- IC50 (JAK2; given as range class): > 500 nM

Structure (SMILES): C=C(C)C(=O)Nc1cccc(-c2ncnc3[nH]cc(C(=O)OCC)c23)c1F [Example 4-2, Ethyl 4-{2-fluoro-3-[(2-methylacryloyl)amino]phenyl}-7H-pyrrolo[2,3-d]pyrimidine-5-carboxylate]
- IC50 (JAK3): 4 nM
- IC50 (JAK2): > 1500 nM

Structure (SMILES): C=C(C)C(=O)Nc1cncc(-c2ncnc3[nH]cc(C(=O)OCC)c23)c1 [Example 4-3, Ethyl 4-{5-[(2-methylacryloyl)amino]pyridin-3-yl}-7H-pyrrolo[2,3-d]pyrimidine-5-carboxylate]
- IC50 (JAK3): 0.085 nM
- IC50 (JAK2): > 1500 nM

Structure (SMILES): CCOC(=O)c1c[nH]c2ncnc(-c3cccc(NC(=O)CC)c3)c12 [Example 4-7, ethyl 4-[3-(propanoylamino)phenyl]-7H-pyrrolo[2,3-d]pyrimidine-5-carboxylate]
- IC50 (JAK3; given as range class): 10 to 500 nM
- IC50 (JAK2; given as range class): > 500 nM

Structure (SMILES): C=C(CC)C(=O)Nc1cccc(-c2ncnc3[nH]cc(C(=O)OCC)c23)c1 [Example 4-8, ethyl 4-{3-[(2-methylidenebutanoyl)amino]phenyl}-7H-pyrrolo[2,3-d]pyrimidine-5-carboxylate]
- IC50 (JAK3): 0.61 nM
- IC50 (JAK2): > 1500 nM

Structure (SMILES): C=C(C)C(=O)Nc1cc(-c2ncnc3[nH]cc(C(=O)OCC)c23)ccc1Cl [Example 4-9, ethyl 4-{4-chloro-3-[(2-methylacryloyl)amino]phenyl}-7H-pyrrolo[2,3-d]pyrimidine-5-carboxylate]
- IC50 (JAK3): 0.013 nM
- IC50 (JAK2): > 1500 nM

The next lines start with the values.

- IC50 (JAK3; given as range class): 10 to 500 nM
- IC50 (JAK2; given as range class): 10 to 500 nM
Structure (SMILES): CCOC(=O)c1c[nH]c2ncnc(C3=CCC(C#N)CC3)c12 (centres unmarked) [Example 1-90, ethyl 4-(4-cyanocyclohex-1-en-1-yl)-7H-pyrrolo[2,3-d]pyrimidine-5-carboxylate]

- IC50 (JAK3; given as range class): 10 to 500 nM
- IC50 (JAK2; given as range class): > 500 nM
Structure (SMILES): CCOC(=O)c1c[nH]c2ncnc(-c3cnn(CCS(C)(=O)=O)c3)c12 [Example 1-92, ethyl 4-{1-[2-(methylsulfonyl)ethyl]-1H-pyrazol-4-yl}-7H-pyrrolo[2,3-d]pyrimidine-5-carboxylate]

- IC50 (JAK3; given as range class): 10 to 500 nM
- IC50 (JAK2; given as range class): > 500 nM
Structure (SMILES): CCOC(=O)c1c[nH]c2ncnc(-c3ccc(OC)nc3)c12 [Example 1-93, ethyl 4-(6-methoxypyridin-3-yl)-7H-pyrrolo[2,3-d]pyrimidine-5-carboxylate]

- IC50 (JAK3): 7.5 nM
- IC50 (JAK2): 121 nM
Structure (SMILES): CCOC(=O)c1c[nH]c2ncnc(-c3ccc(-n4cccn4)cc3)c12 [Example 1-94, ethyl 4-[4-(1H-pyrazol-1-yl)phenyl]-7H-pyrrolo[2,3-d]pyrimidine-5-carboxylate]

- IC50 (JAK3; given as range class): 10 to 500 nM
- IC50 (JAK2; given as range class): > 500 nM
Structure (SMILES): CCOC(=O)c1c[nH]c2ncnc(-c3cccc(N4CCS(=O)(=O)CC4)c3)c12 [Example 1-95, ethyl 4-[3-(1,1-dioxidothiomorpholin-4-yl)phenyl]-7H-pyrrolo[2,3-d]pyrimidine-5-carboxylate]

- IC50 (JAK3; given as range class): 10 to 500 nM
- IC50 (JAK2; given as range class): > 500 nM
Structure (SMILES): CCOC(=O)c1c[nH]c2ncnc(-c3cnn(CCOC)c3)c12 [Example 1-99, ethyl 4-[1-(2-methoxyethyl)-1H-pyrazol-4-yl]-7H-pyrrolo[2,3-d]pyrimidine-5-carboxylate]

- IC50 (JAK3; given as range class): 10 to 500 nM
- IC50 (JAK2; given as range class): > 500 nM
Structure (SMILES): CCOC(=O)c1c[nH]c2ncnc(-c3cccc(C(C)(C)O)c3)c12 [Example 1-105, ethyl 4-[3-(1-hydroxy-1-methylethyl)phenyl]-7H-pyrrolo[2,3-d]pyrimidine-5-carboxylate]

- IC50 (JAK3; given as range class): 10 to 500 nM
- IC50 (JAK2; given as range class): > 500 nM
Structure (SMILES): CCOC(=O)c1c[nH]c2ncnc(-c3cncc(CO)c3)c12 [Example 1-106, ethyl 4-[5-(hydroxymethyl)pyridin-3-yl]-7H-pyrrolo[2,3-d]pyrimidine-5-carboxylate]

- IC50 (JAK3): 9 nM
- IC50 (JAK2): 153 nM
Structure (SMILES): CCCOC(=O)c1c[nH]c2ncnc(-c3ccc4cn(C)nc4c3)c12 [Example 2-1, Propyl 4-(2-methyl-2H-indazol-6-yl)-7H-pyrrolo[2,3-d]pyrimidine-5-carboxylate]

- IC50 (JAK3; given as range class): 10 to 500 nM
- IC50 (JAK2; given as range class): 10 to 500 nM
Structure (SMILES): C=CCOC(=O)c1c[nH]c2ncnc(-c3ccc4cn(C)nc4c3)c12 [Example 2-2, Prop-2-en-1-yl 4-(2-methyl-2H-indazol-6-yl)-7H-pyrrolo[2,3-d]pyrimidine-5-carboxylate]

- IC50 (JAK3): 0.15 nM
- IC50 (JAK2): > 1480 nM
Structure (SMILES): C=C(C)C(=O)Nc1cccc(-c2ncnc3[nH]cc(C(=O)OCC)c23)c1 [Example 4-1, Ethyl-4-{3-[(2-methylacryloyl)amino]phenyl}-7H-pyrrolo[2,3-d]pyrimidine-5-carboxylate]

- IC50 (JAK3): 0.049 nM
- IC50 (JAK2): > 1500 nM
Structure (SMILES): C=C(C)C(=O)Nc1cc(-c2ncnc3[nH]cc(C(=O)OCC)c23)cc(OC)n1 [Example 4-4, Ethyl 4-{2-methoxy-6-[(2-methylacryloyl)amino]pyridin-4-yl}-7H-pyrrolo[2,3-d]pyrimidine-5-carboxylate]

- IC50 (JAK3): 0.04 nM
- IC50 (JAK2): 790 nM
Structure (SMILES): C=CC(=O)Nc1cccc(-c2ncnc3[nH]cc(C(=O)OCC)c23)c1 [Example 4-5, ethyl 4-[3-(acryloylamino)phenyl]-7H-pyrrolo[2,3-d]pyrimidine-5-carboxylate]

- IC50 (JAK3): 1.6 nM
- IC50 (JAK2): 483 nM
Structure (SMILES): C/C=C/C(=O)Nc1cccc(-c2ncnc3[nH]cc(C(=O)OCC)c23)c1 [Example 4-6, ethyl 4-{3-[(2E)-but-2-enoylamino]phenyl}-7H-pyrrolo[2,3-d]pyrimidine-5-carboxylate]
